Reference: paper PMC3189933, “Acylpeptide Hydrolase Inhibition as Targeted Strategy to Induce Proteasomal Down-Regulation” (PLoS ONE, 2011)
Where a SMILES comes first, the peptide text is derived from it. Where no end group is shown, it is not given here. The star is where a group is joined. Cbz = O=C(OCc1ccccc1)*

Legend:
[1] = Stability in aqueous solution; format: physicochemical; conditions: at the concentrations required for CD analyses
APEHSs = assay: Inhibition of S. solfataricus APEH (APEHSs), Ac-Leu-pNA substrate; format: biochemical, Sulfolobus solfataricus; conditions: increasing inhibitor concentrations, Ac-Leu-pNA, pre-incubated 30 min at 80°C
Method: (§1) APEH activity was expressed in IU.
(§2) Protease inhibitor activities of the SsCEI peptides and the CLA isomers were carried out using a fixed amount of APEH or partially purified proteasome (3–5 nM and 0.12 mg/mL, respectively), and increasing the SsCEI and CLA isomer concentrations. Mixtures were pre-incubated for 30 min at 37°C before the addition of the substrate, and the enzymatic activities were followed as described above. Protease inhibitor activities of the SsCEI peptides and the CLA isomers were determined towards APEHSs. The protease and increasing concentrations of the inhibitors were mixed and preincubated for 30 min at 80°C before the addition of the specific substrate. The residual enzymatic activity was determined using the assay procedure described above.
(§3) All data were obtained from triplicate analyses of three different preparations. Data were presented as means ±S.D. Statistical analysis and IC50 values were calculated with the SigmaPlot 10.0 software through a non-linear curve-fitting method and using a simple binding isotherm equation. Groups were compared by Student's t test, and P<0.05 was considered as significant.

Thermal CD spectroscopy = format: physicochemical; conditions: CD 37°C to 77°C in 10°C steps, 5 mM Tris–HCl pH 7.5
Method: CD spectra were obtained on a Jasco J-715 spectropolarimeter with 400 µL of 8.0×10^-7 M protein in 5 mM Tris–HCl pH 7.5. Hellman quartz cells of 0.1-cm-path length were used in the far UV (190–250 nm). The temperature of the sample cell was regulated by a PTC-348 WI thermostat and thermal CD was performed from 250 to 195 nm by raising the cell temperature from 37°C to 77°C. The thermal CD spectra were signal-averaged by combining three scans and the baseline was corrected by subtracting a buffer spectrum. The samples were then cooled back to 37°C to monitor the final folding of the peptides.

[2] = Gel filtration (size-exclusion) analysis of oligomerization; format: physicochemical; conditions: 100 µM peptide
Method: Gel filtration chromatography was performed on a BioSep SEC-S2000 column equilibrated with 50 mM phosphate buffer pH 6.8, at a flow rate of 1.0 mL/min. A standard curve was built using a set of synthetic peptides with molecular weights between 1.500 amu and 2.500 amu. For this purpose, peptide aliquots were injected onto the column and a plot of KD versus log10 molecular weights (MW) was obtained, where KD = (Ve-Vo)/(VT-Vo), Ve is the elution volume of the sample, and VT and Vo are the total and void volumes of the column, respectively.

BHK cells = assay: Cytotoxicity in BHK cells; format: cell-based, Baby Hamster; conditions: 100 µM, 24 h or 48 h; data not shown
Method: The cells were plated in 12-well plates, to a confluence of 60% for the 24-h incubations, and 40% for 48-h exposure to PIs. These treatments were initiated 24-h after the plating of the cells. Phase-contrast images of the cells were taken just before the lysis of the cells for protein analysis, using a Lica DM6000 inverted microscope.

Caco-2 cells = assay: LDH release cytotoxicity assay in Caco-2 cells; conditions: 48 h; for toxicity (LDH release) compared with MG132: 200 µM SsCEI 4 or t10c12-CLA, 100 µM ebelactone, MG132 10 µM
Method: The release of LDH was used as the marker for cell toxicity [48]. The culture supernatants were sampled at the end of the incubations and centrifuged (4,000×g, 5 min, and 4°C). Aliquots of the clear supernatant (10 µL) were incubated with 190 µL reaction buffer (200 mM Tris/HCl, pH 8.0, 0.7 mM p-iodonitrotetrazolium violet, 50 mM L-lactic acid, 0.3 mM phenazine methoxysulphate, 0.4 mM NAD,) for 30 min at 37°C. Absorbance was measured at 490 nm and the results were expressed as percentages of total LDH release from control cultures treated with 1% (w/v) Triton X-100 and calculated as: [(experimental value - blank value)/(total lysis -blank value)−100].

APEH in Caco-2 cells = assay: APEH activity in Caco-2 cells; conditions: differentiated Caco-2 cells
Method: Porcine liver APEH activity was measured spectrophotometrically using the chromogenic substrate acetyl-Ala-pNA (Bachem). The reaction mixture (1 mL) containing pure APEH (38 ng) or an appropriate amount of cell extract in 50 mM Tris-HCl buffer pH 7.5 (Tris Buffer), was preincubated at 37°C for 2 min. Then, 1 mM acetyl-Ala-pNA was added and the release of p-nitroanilide (ε410 = 8800 M-1 cm-1) was measured by recording the absorbance increase at 410 nm on a Cary 100 Scan (Varian) UV/Vis spectrophotometer, equipped with a thermostated cuvette compartment. APEH activity was expressed in IU. The APEHSs activity was measured using acetyl-Leu-pNA (0.1 mM) (Sigma) as substrate. The reaction mixture (1 mL) containing the appropriate amount of enzyme in 25 mM Tris-HCl buffer pH 7.5, was preincubated at 80°C for 2 min. Then, 0.1 mM acetyl-Leu-pNA was added and the release of p-nitroanilide was measured, following the standard assay procedure described above.
Caco-2 cells (ATCC) were cultivated in DMEM supplemented with 10% FBS, 1 mM glutamine and 100 units/mL penicillin-streptomycin at 37°C in a humidified 5% CO2 atmosphere. The cells were studied between passages 12 and 22. The cells were split using trypsin-EDTA solution and plated in 6-well plates at a density of 8×10^4 cells/mL and the medium was replaced every 2–3 days. Under these conditions, the cells reached visual confluence after 7 days and the differentiated stage two weeks later. The differentiated cells were incubated for 48 h with the different substances.
Following the treatments, the BHK and Caco-2 cells were washed three times with ice cold phosphate-buffered saline and collected immediately at 4°C in lysis buffer (1% Triton X-100, 0.1% SDS, 20 mM Tris-HCl, pH 8.0, 150 mM NaCl, 0.5% sodium deoxycholate and complete protease inhibitors [Roche]). The lysates were centrifuged at 10,000×g for 15 min at 4°C. The protein concentrations in the clear supernatants were determined (BCA protein assay reagent kit; Pierce) before their use in enzymatic assays or SDS–PAGE.

[3] = Enzymatic stability in 10% FBS; format: in vitro ADME; conditions: method as ref 19, data not shown
porcine APEH [4] = target: T1, porcine APEH (Sus scrofa, UniProt P19205); assay: APEH inhibition in a reaction mixture containing the entire set of proteases; format: biochemical; conditions: mixture with trypsin, α-chymotrypsin, elastase, carboxypeptidase Y, subtilisin, thrombin; data not shown
T1 construct: mammalian APEHs purified from both porcine liver and human colon carcinoma intestinal cells (Caco-2); purchased Takara; host or cells: porcine liver
T1 sequence (P19205 1-732): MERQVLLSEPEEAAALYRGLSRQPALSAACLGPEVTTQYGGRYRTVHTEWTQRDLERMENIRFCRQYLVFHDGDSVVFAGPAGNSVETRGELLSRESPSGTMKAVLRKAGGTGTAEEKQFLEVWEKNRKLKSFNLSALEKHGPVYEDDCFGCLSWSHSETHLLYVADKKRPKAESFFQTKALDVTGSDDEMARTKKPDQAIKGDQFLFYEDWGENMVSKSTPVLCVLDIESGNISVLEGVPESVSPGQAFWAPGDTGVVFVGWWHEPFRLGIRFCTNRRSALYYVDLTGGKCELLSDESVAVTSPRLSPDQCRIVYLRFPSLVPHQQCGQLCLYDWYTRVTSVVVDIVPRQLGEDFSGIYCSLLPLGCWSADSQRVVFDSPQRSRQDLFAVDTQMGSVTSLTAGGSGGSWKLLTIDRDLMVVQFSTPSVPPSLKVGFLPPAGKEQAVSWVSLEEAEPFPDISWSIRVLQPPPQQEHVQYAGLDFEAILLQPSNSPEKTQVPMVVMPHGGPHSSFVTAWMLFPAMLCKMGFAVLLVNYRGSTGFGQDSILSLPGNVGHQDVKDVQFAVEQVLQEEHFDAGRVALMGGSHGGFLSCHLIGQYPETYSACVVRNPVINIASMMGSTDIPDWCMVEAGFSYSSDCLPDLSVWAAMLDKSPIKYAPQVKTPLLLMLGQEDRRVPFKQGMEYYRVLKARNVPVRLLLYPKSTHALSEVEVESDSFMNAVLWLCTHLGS

human APEH = target: T2, human APEH (Homo sapiens, UniProt P13798); assay: Inhibition of human APEH purified from Caco-2 cells; format: biochemical; conditions: human APEH from Caco-2 cells, Ac-Ala-pNA; data not shown
T2 construct: Partial purification of human APEH and proteasome was carried out from protein extracts of Caco-2 cell; endogenous in cells; host or cells: Caco-2
T2 sequence (P13798 1-732): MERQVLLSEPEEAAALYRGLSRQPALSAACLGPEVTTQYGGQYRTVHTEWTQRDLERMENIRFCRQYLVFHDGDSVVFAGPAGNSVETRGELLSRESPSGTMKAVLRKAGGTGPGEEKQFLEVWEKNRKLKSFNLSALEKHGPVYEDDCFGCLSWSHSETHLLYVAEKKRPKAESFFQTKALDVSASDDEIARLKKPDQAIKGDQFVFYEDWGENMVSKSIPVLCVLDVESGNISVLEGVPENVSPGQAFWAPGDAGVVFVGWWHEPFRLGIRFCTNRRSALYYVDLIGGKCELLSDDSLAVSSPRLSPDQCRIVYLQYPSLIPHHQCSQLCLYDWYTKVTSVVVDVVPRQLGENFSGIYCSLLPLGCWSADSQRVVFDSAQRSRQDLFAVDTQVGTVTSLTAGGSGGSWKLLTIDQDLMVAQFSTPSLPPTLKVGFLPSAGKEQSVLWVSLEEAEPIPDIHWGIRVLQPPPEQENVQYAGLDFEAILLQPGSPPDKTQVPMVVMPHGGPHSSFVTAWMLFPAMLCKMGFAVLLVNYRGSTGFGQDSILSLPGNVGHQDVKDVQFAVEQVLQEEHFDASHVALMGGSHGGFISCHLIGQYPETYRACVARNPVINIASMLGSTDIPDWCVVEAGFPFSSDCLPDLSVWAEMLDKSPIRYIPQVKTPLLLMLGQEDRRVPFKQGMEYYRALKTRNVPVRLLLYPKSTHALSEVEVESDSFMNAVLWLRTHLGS
Method: APEH from Sulfolobus solfataricus was purified as previously reported. Partial purification of human APEH and proteasome was carried out from protein extracts of Caco-2 cell. Briefly, protein extracts (500 µg) were fractionated by gel filtration chromatography on a Superdex 200 PC 3.2/30 column connected to a SMART System (Pharmacia) equilibrated in buffer 50 mM Tris-HCl, pH 7.5, 100 mM NaCl, at 0.1 mL/min. The eluted fractions were assayed using the specific substrates for APEH and the proteasome. The active fractions were collected and used for further analysis.
as §1, §2

porcine APEH [5] = target: T1, porcine APEH; assay: RP-HPLC analysis of SsCEI 4 incubated with the target enzyme; format: in vitro ADME; conditions: 50 mM Tris pH 7.5, 37°C, up to 2 h, RP-HPLC C18, UV, printed 4 µM SsCEI 4 and 100 µM APEH
Method: The experiments were conducted at 37°C in 50 mM Tris buffer, pH 7.5. Solutions of SsCEI 4 and porcine APEH were incubated for up to 2 h at optimal concentrations (4 µM SsCEI 4 and 100 µM APEH) to guarantee a high degree of enzymatic inhibition. At specific time intervals, 195 µL aliquots were taken, and the reaction was stopped by addition of 5 µL TFA. The samples were then analysed directly by reverse-phase HPLC (Dionex BioLC) on a μBondapak C18 column (3.9×300 mm, Waters), eluted with a linear gradient (0–60% acetonitrile in 0.1% TFA) at a flow rate of 1 ml/min. Control peptide samples were incubated in the absence of the purified enzymes and run in parallel.

porcine APEH [6] = target: T1, porcine APEH; assay: Time-dependent inhibition of APEH; format: biochemical; conditions: pre-incubation at least 20 min at 37°C, then diluted 1:5 into assay mixture with substrate
Method: The time-dependent inhibition of SsCEI 4 and t10c12-CLA towards APEH was assessed. Mixtures containing appropriate amounts of each inhibitor and of APEH were pre-incubated for 20 min at 37°C; they were then diluted (1∶5) into the standard assay mixture, which contained the substrate only. The enzymatic activity was followed as described above. Control samples were prepared by pre-incubating the same amounts of APEH without the inhibitors and then diluted in the standard assay mixture.

[7] = tested on: polyubiquitinylated proteins in Caco-2 cells; assay: Protein ubiquitinylation in Caco-2 cells (immunoblot); format: cell-based, human; conditions: 48 h, 200 µM SsCEI 4 or t10c12-CLA, mixture, 100 µM ebelactone, 10 µM MG132, species 66 kDa to 160 kDa
Description: The following antibodies were used: anti-APEH antibody (sc-102311; Santa Cruz Biotechnology); anti-NF-κB/p65 antibody (Thermo Scientific); anti-p21Waf1 antibody (Exbio); pan Ab-5 anti-actin antibody (clone ACTN05, Thermo Scientific); and monoclonal antibodies against polyubiquitinylated proteins conjugated with horseradish peroxidase (FK2H, Enzo, Life Science). The ΔF508CFTR-3HA protein was detected with an anti HA monoclonal antibody (Covance).

bovine α-chymotrypsin = bovine α-chymotrypsin (Bos taurus, UniProt P00766); assay: Serine protease selectivity panel: α-chymotrypsin; format: biochemical; conditions: increasing peptide concentrations, hyperbolic fit (Figure S3); read-out: IC50 towards bovine α-chymotrypsin
porcine APEH [8] = target: T1, porcine APEH; assay: Inhibition of porcine liver APEH, Ac-Ala-pNA substrate; format: biochemical; conditions: Ac-Ala-pNA, pre-incubated 30 min at 37°C
Method: as §1, §2, §3

## YAIDTILLEIKNINAD-NH2 [SsCEI 1]
[1]
  stability in aqueous solution: poor stability in aqueous solution

## YAIDTILA EIKNINAD [SsCEI 3]
APEHSs
  effect on APEHSs activity: no detectable decrease
Thermal CD spectroscopy
  structural stability with temperature (CD): considerable structural stability
[2]; BioSep SEC-S2000, 50 mM phosphate pH 6.8, Da±SD, three independent determinations
  Measured mass value (apparent MW by gel filtration): 2012±150 Da
[2]; size-exclusion chromatography
  oligomerization state: essentially monomers

## TILAEIKNINAD-NH2 [SsCEI 4]
BHK cells
  cytotoxic effects in BHK cells: without any cytotoxic effects
Caco-2 cells
  toxicity (LDH release) compared with MG132: significantly lower than that observed in culture incubated with MG132
Caco-2 cells; up to highest concentration 200 µM
  cytotoxic effect (LDH activity levels): not associated with any cytotoxic effect
APEH in Caco-2 cells; 200 µM, 48 h (maximum effect)
  decrease of APEH activity in Caco-2 cells: 70%
[3]
  enzymatic stability in 10% FBS: completely stable for at least one week
Porcine APEH [4]
  inhibition efficiency and Ki towards APEH in presence of the entire protease set: comparable to those measured in the presence of the APEH alone
Human APEH
  IC50 towards human APEH relative to porcine APEH: Comparable
Porcine APEH [5]
  stability of peptide incubated with APEH (degradation / adducts): neither peptide degradation nor covalent binding with APEH occurred
Porcine APEH [6]
  inhibition of APEH after pre-incubation with the enzyme: 100%

## CC[C@@H](C)[C@@H](O)[C@H](C)C(=O)[C@H](C)/C=C(\C)C[C@H](C)[C@@H]1OC(=O)[C@H]1CC [ebelactone]
Caco-2 cells
  toxicity (LDH release) compared with MG132: significantly lower than that observed in culture incubated with MG132
[7]
  polyubiquitin conjugates in cell extract: presence of high-molecular-mass immunoreactive species

## CC(C)C[C@@H](C=O)NC(=O)[C@H](CC(C)C)NC(=O)[C@H](CC(C)C)NC(=O)OCc1ccccc1 [MG132] (Cbz-Leu-Leu-Leu-aldehyde)
APEH in Caco-2 cells; MG132 10 µM, 48 h
  effect on APEH activity in Caco-2 cells: no detectable effects
[7]
  polyubiquitin conjugates in cell extract: presence of high-molecular-mass immunoreactive species

## TILLEIKNINAD-NH2 [SsCEI 2]
Bovine α-chymotrypsin
  IC50: 21.9 ± 6.4 µM
Human APEH
  IC50 towards human APEH relative to porcine APEH: Comparable
Thermal CD spectroscopy
  structural stability with temperature (CD): considerable structural stability

## CCCCCC/C=C/C=C\CCCCCCCC(=O)O [c9t11-CLA, cis9-trans11 CLA]
APEHSs
  effect on APEHSs activity: no significant modulatory effect
Porcine APEH [8]
  effect on porcine APEH activity: ineffective
